By IC50 is commonly meant the midpoint of a concentration-inhibition curve.

Test [1] addresses EZH2 (PRC2 enzyme complex: EZH2, EED, Suz12, RbAp48) (Homo sapiens (Human), UniProt O75530+Q09028+Q15022+Q15910). Nature of the test: PRC2 enzyme assay on peptide substrates (3H-SAM Flashplate).
From the text: S-adenosylmethionine (SAM), S-adenosylhomocyteine (SAH), bicine, KCl, Tween20, dimethylsulfoxide (DMSO) and bovine skin gelatin (BSG) were purchased from Sigma-Aldrich at the highest level of purity possible. Dithiothreitol (DTT) was purchased from EMD. ^3H-SAM was purchased from American Radiolabeled Chemicals with a specific activity of 80 Ci/mmol. 384-well streptavidin Flashplates were purchased from PerkinElmer.
Recombinant PRC2 Enzymes. Human PRC2 enzymes were purified as 4-component enzyme complexes co-expressed in Spodoptera frugiperda (sf9) cells using a baculovirus expression system. The subunits expressed were wild-type EZH2 (NM_004456) or EZH2 Y641F, N, H, S or C mutants generated from the wild-type EZH2 construct, EED (NM_003797), Suz12 (NM_015355) and RbAp48 (NM_005610). The EED subunit contained an N-terminal FLAG tag that was used to purify the entire 4-component complex from sf9 cell lysates. The purity of the complexes met or exceeded 95% as determined by SDS-PAGE and Agilent Bioanalyzer analysis.
The assays were all performed in a buffer consisting of 20 mM bicine (pH=7.6), 0.5 mM DTT, 0.005% BSG and 0.002% Tween20, prepared on the day of use. […] DMSO (1 μL) was added to columns 11, 12, 23, 24, rows A-H for the maximum signal control, and SAH, a known product and inhibitor of PRC2 (1 μL) was added to columns 11,12, 23, 24, rows I-P for the minimum signal control. A cocktail (40 μL) containing the wild-type PRC2 enzyme and H3K27me0 peptide or any of the Y641 mutant enzymes and H3K27me2 peptide was added by Multidrop Combi (Thermo). The compounds were allowed to incubate with PRC2 for 30 min at 25° C., then a cocktail (10 μL) containing a mixture of non-radioactive and ^3H-SAM was added to initiate the reaction (final volume=51 μL). […] The assays were stopped by the addition of non-radioactive SAM (10 μL) to a final concentration of 600 μM, which dilutes the ^3H-SAM to a level where its incorporation into the peptide substrate is no longer detectable. 50 μL of the reaction in the 384-well polypropylene plate was then transferred to a 384-well Flashplate and the biotinylated peptides were allowed to bind to the streptavidin surface for at least 1 h before being washed three times with 0.1% Tween20 in a Biotek ELx405 plate washer. The plates were then read in a PerkinElmer TopCount platereader to measure the quantity of ^3H-labeled peptide bound to the Flashplate surface, measured as disintegrations per minute (dpm) or alternatively, referred to as counts per minute (cpm).
The Hill Coefficient normally allowed to float but may also be fixed at 1 in a 3-parameter fit. Y is the % inhibition and X is the compound concentration.
Test [2] addresses EZH2 (PRC2 enzyme complex: EZH2, EED, Suz12, RbAp48) (Homo sapiens (Human), UniProt Q15910). The description is as above. The following applies: read-out: EZH2 IC50; PRC2 enzyme assays on peptide substrates; 4 nM enzyme, 30 min preincubation at 25° C.; EZH2 form (wild-type or Y641 mutant) not stated in tables.

Molecules are shown by their SMILES.

Sequence of EZH2 (PRC2 enzyme complex: EZH2, EED, Suz12, RbAp48) (Homo sapiens (Human), UniProt O75530+Q09028+Q15022+Q15910) (Q15910 other isoform, or with tags, fused parts or gaps): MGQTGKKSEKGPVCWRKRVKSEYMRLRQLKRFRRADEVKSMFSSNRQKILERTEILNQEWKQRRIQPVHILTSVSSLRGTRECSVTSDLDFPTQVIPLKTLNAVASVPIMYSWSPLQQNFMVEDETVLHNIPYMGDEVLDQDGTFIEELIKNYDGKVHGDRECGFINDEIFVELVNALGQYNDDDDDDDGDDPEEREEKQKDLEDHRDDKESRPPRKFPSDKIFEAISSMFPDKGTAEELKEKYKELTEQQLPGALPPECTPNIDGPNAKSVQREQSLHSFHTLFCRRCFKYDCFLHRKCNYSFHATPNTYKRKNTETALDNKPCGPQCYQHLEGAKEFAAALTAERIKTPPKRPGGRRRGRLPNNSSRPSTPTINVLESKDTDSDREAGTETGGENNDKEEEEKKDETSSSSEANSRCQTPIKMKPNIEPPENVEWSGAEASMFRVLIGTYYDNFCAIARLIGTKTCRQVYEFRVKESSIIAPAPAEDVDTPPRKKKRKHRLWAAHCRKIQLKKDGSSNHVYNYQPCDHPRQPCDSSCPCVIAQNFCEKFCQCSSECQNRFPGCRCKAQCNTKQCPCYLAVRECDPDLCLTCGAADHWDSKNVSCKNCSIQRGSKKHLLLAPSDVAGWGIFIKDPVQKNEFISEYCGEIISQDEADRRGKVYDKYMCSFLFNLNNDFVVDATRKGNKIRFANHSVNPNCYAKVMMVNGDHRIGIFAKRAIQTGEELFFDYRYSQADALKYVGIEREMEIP
Sequence of EZH2 (PRC2 enzyme complex: EZH2, EED, Suz12, RbAp48) (Homo sapiens (Human), UniProt O75530+Q09028+Q15022+Q15910) (O75530 whole entry partner): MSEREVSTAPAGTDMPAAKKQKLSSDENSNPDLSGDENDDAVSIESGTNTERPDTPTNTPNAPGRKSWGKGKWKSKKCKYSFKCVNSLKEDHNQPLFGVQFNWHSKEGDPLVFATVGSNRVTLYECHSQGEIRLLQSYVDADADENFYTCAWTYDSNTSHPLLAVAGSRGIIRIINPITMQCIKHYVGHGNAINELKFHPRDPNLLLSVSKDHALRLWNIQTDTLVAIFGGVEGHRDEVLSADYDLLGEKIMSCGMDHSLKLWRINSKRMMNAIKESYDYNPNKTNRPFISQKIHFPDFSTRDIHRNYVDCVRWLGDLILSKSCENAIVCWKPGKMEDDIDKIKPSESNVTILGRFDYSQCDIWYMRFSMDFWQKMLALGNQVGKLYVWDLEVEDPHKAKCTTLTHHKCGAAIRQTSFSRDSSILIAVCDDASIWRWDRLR
Sequence of EZH2 (PRC2 enzyme complex: EZH2, EED, Suz12, RbAp48) (Homo sapiens (Human), UniProt O75530+Q09028+Q15022+Q15910) (Q15022 whole entry partner): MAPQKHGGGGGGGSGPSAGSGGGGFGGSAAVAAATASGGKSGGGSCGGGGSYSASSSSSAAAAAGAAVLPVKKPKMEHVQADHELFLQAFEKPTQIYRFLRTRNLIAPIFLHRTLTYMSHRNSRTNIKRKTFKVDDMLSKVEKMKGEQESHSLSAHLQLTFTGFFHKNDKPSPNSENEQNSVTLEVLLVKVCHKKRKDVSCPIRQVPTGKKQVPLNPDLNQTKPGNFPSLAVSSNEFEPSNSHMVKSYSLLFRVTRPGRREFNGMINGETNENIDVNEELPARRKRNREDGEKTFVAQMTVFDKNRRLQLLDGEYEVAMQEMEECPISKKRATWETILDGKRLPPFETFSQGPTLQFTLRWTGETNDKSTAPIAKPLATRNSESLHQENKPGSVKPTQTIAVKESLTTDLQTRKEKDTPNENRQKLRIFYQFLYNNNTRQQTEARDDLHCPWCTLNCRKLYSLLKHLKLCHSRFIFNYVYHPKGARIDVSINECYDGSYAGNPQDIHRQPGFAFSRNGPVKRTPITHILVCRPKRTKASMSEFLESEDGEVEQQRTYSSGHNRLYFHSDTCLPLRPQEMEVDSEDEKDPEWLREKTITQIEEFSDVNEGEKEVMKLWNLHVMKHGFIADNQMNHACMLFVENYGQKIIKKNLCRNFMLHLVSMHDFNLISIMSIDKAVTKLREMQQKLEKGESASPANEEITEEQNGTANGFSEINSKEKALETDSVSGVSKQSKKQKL
Sequence of EZH2 (PRC2 enzyme complex: EZH2, EED, Suz12, RbAp48) (Homo sapiens (Human), UniProt O75530+Q09028+Q15022+Q15910) (Q09028 whole entry partner): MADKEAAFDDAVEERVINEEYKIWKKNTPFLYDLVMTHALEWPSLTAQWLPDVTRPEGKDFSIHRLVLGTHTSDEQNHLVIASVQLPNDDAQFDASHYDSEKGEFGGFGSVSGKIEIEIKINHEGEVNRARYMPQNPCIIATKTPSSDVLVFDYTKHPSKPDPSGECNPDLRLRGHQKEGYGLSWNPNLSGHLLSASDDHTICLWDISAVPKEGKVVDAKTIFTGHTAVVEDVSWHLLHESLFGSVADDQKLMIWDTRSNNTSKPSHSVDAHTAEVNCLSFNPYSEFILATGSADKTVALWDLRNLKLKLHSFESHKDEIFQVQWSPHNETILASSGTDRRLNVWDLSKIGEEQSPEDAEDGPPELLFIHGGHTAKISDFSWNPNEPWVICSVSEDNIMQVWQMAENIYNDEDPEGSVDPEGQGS
Sequence of EZH2 (PRC2 enzyme complex: EZH2, EED, Suz12, RbAp48) (Homo sapiens (Human), UniProt Q15910) (Q15910 other isoform, or with tags, fused parts or gaps): as the sequence (Q15910 other isoform, or with tags, fused parts or gaps) above
Sequence of EZH2 (PRC2 enzyme complex: EZH2, EED, Suz12, RbAp48) (Homo sapiens (Human), UniProt Q15910) (O75530 whole entry partner): as the sequence (O75530 whole entry partner) above
Sequence of EZH2 (PRC2 enzyme complex: EZH2, EED, Suz12, RbAp48) (Homo sapiens (Human), UniProt Q15910) (Q15022 whole entry partner): as the sequence (Q15022 whole entry partner) above
Sequence of EZH2 (PRC2 enzyme complex: EZH2, EED, Suz12, RbAp48) (Homo sapiens (Human), UniProt Q15910) (Q09028 whole entry partner): as the sequence (Q09028 whole entry partner) above

Turning to `CNCCN(C)Cc1cccc(-c2cc(C(=O)NCc3c(C)cc(C)[nH]c3=O)c3cnn(C(C)C)c3n2)c1` [Compound A-58], the IC50 in test [1] lay in the range of 1 to 3 µM.

For `Cc1cc(C)c(CNC(=O)c2cc(-c3ccccc3CN)nc3c2cnn3C(C)C)c(=O)[nH]1` [Compound A-68], the IC50 in test [1] was in the range of 3 to 10 µM.

`Cc1cc(C)c(CNC(=O)c2cc(-c3cccc(CN(C)CCN4CCCC4)c3)nc3c2cnn3C(C)C)c(=O)[nH]1` [Compound A-41] had an IC50 in test [1] of 0.3 to 1 µM.

Regarding `Cc1cc(C)c(CNC(=O)c2cc(C3CC(C)(C)NC(C)(C)C3)nc3c2cnn3C2CCCC2)c(=O)[nH]1` [Compound B-4, 1-cyclopentyl-N-((4,6-dimethyl-2-oxo-1,2-dihydropyridin-3-yl)methyl)-6-(2,2,6,6-tetramethylpiperidin-4-yl)-1H-pyrazolo[3,4-b]pyridine-4-carboxamide], the IC50 in test [2] was less than 0.3 µM.

In the case of `CC1=CC(C)=C(CNC(=O)c2cc(C3=CCN(C(=O)C4CN(C)C4)CC3)cc3c2cnn3C2CCCC2)C(C)N1` [Compound D-50], in test [2], the half-inhibitory concentration (IC50) is less than 0.3 µM.

For the compound `Cc1cc(C)c(CNC(=O)c2cc(-c3cccc(CNCCCN(C)C)c3)nc3c2cnn3C(C)C)c(=O)[nH]1` [Compound A-125], the IC50 in test [1] is 1 to 3 µM.

`Cc1cc[nH]c(=O)c1CNC(=O)c1cc(-c2ccc3c(c2)OCCO3)nc2c1cnn2C(C)(C)C` [Compound A-77] gave an IC50 in test [1] of 10 to 50 µM.

For the compound `Cc1cc(C)c(CNC(=O)c2c(Cl)c(-c3ccc4c(c3)OCCO4)nc3c2cnn3C(C)C)c(=O)[nH]1` [Compound A-47], the IC50 in test [1] was in the range of 0.3 to 1 µM.

On to `CNCCN1CCC(c2cc(C(=O)NCC3=C(C)C=C(C)NC3C)c3cnn(C4CCCC4)c3c2)CC1` [Compound D-51], for which the IC50 in test [2] was less than 0.3 µM.

On to `Cc1cc(C)n(C)c(=O)c1CNC(=O)c1cc(-c2cccc(CN(C)CCN(C)C)c2)nc2c1cnn2C(C)C` [Compound A-74], for which the IC50 in test [1] lay within 10 to 50 µM.

`Cc1cc(C(C)C)c(CNC(=O)c2cc(C3=CC(C)(C)NC(C)(C)C3)nc3c2cnn3C(C)C)c(=O)[nH]1` [Compound B-148] came in with an IC50 in test [1] of 10 to 50 µM.

As for `Cc1cc(C)c(CNC(=O)c2cc(C(C)C)nc3c2cnn3C(C)C)c(=O)[nH]1` [Compound B-109], in test [1], the IC50 fell in the range of 1 to 3 µM.

Source of the values: patent US10273223B2, “Substituted 6,5-fused bicyclic heteroaryl compounds” (Epizyme, Inc., priority 2011, dated 2019).
